Consider one molecule from EP0569598A1, “BENZOXAZINONE DERIVATIVE” (JAPAN TOBACCO INC., priority 1991, dated 1993).

Each structure is given as a SMILES string. pIC50: −log10 of the molar value.

In experiment [1] the target is T1, human sputum elastase (HSE) (Homo sapiens, UniProt P08246).
T1 construct: human sputum elastase (HSE); purchased Sigma Inc
T1 sequence (P08246 30-267): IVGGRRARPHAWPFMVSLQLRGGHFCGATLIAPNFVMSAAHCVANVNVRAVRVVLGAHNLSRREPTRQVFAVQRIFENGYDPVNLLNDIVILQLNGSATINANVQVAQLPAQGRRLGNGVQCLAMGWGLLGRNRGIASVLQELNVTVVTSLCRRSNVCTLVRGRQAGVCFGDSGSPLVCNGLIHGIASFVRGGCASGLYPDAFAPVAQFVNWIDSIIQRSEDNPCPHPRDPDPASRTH
Description: HSE inhibitory activity (synthetic substrate, pNA release). It is filed as biochemical. Conditions: pH 7.0; HSE 10 nM, substrate 0.25 mM; read-out: IC₅₀ value HSE. Here is the method: (§1) Activities of the Benzoxazine derivatives of the present invention against human leukocyte elastase (HLE), human sputum elastase (HSE), human cathepsin G (HCG), bovine pancreatic α-chmotrypsin (CYT) and bovine pancreatic trypsin (TRY) were measured by the following method.
A test compound was dissolved in DMSO (for fluorometry) and prepared various concentration of the solution. To each concentration was added 2-fold volume of 0.2M Tris-HCl (pH8.6), thereby obtaining a test solution. Synthetic substrate (Funakoshi, L-1335) was dissolved in DMSO and 2-volume of 0.2M Tris-HCl (pH8.6) was added thereto, thereby obtaining a substrate solution. The reaction was performed using a microplate having 96 wells (Nunk). Six-time reactions were repeated for each concentration. One handred and forty µl of an enzyme solution containing 0.2M Tris-HCl (pH8.6), 30 µl of a test solution and 30 µl of a substrate solution per well of the microplate were respectively pre-incubated at 37°C for 10 minutes. After completion of the incubation, the enzyme solution was mixed with the test sample and incubated for 10 minutes and then the substrate solution was added to perform an enzyme reaction. The absorbance of released P-nitroanilide (PNA) was measured at the wave length of 405 nm by means of a microplate reader (MTP-100; CORONA), thereby determining the substrate decomposition. […]

In experiment [2] the target is T2, human cathepsin G (HCG) (Homo sapiens, UniProt P08311).
T2 construct: purchased Cosmo Bio Inc
T2 sequence (P08311 21-244): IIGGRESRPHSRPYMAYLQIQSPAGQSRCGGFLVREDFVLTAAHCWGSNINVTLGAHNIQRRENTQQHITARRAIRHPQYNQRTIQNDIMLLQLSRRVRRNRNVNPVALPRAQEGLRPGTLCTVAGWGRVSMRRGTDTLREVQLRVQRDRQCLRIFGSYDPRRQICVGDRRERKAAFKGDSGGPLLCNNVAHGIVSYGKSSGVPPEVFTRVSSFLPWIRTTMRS
In words: HCG inhibitory activity (synthetic substrate, pNA release). Conditions: pH 7.5; HCG 50 nM, substrate 0.5 mM; read-out: IC₅₀ value HCG. It is filed as biochemical. As for the experimental part: as §1
(§2) A test compound was dissolved in DMSO (for fluorometry) and prepared various concentration of the solution. To each concentration was added 2-fold volume of 0.2M Tris-HCl (pH8.6), thereby obtaining a test solution. Synthetic substrate (Funakoshi, L-1335) was dissolved in DMSO and 2-volume of 0.2M Tris-HCl (pH8.6) was added thereto, thereby obtaining a substrate solution. The reaction was performed using a microplate having 96 wells (Nunk). Six-time reactions were repeated for each concentration. One handred and forty µl of an enzyme solution containing 0.2M Tris-HCl (pH8.6), 30 µl of a test solution and 30 µl of a substrate solution per well of the microplate were respectively pre-incubated at 37°C for 10 minutes. After completion of the incubation, the enzyme solution was mixed with the test sample and incubated for 10 minutes and then the substrate solution was added to perform an enzyme reaction. The absorbance of released P-nitroanilide (PNA) was measured at the wave length of 405 nm by means of a microplate reader (MTP-100; CORONA), thereby determining the substrate decomposition. The rate of the substrate decomposition was shown as an average value of 6 repeated reactions. The inhibitory concentration of a test compound relative to the amount of the substrate decomposition in the reaction mixture without a test compound was regarded as an IC₅₀ value. The final concentration of HLE and a synthesized substrate in the reaction mixture were 5.63 nM and 0.2625 mM, respectively.
a) Enzyme obtaining route HCG was obtained from Cosmo Bio Inc.
The same method as in the measurement of HLE inhibitory activity was used except that a buffer solution (pH 7.5) was used. The final concentration of HCG and synthetic substrate (Funakoshi, L-1010) in a reaction mixture were 50 nM and 0.5 mM, respectively.

The target of experiment [3] is T3, bovine pancreatic α-chmotrypsin (CYT) (Bos taurus, UniProt P00766).
T3 construct: bovine pancreatic α-chmotrypsin (CYT); purchased Sigma Co., Ltd
Description: CYT inhibitory activity (synthetic substrate, pNA release). It is filed as biochemical. The following applies: pH 8.0; CYT 3.4 nM, substrate 0.273 mM; read-out: IC₅₀ value CYT. As for the experimental part:
as §1, §2
a) Enzyme obtaining route CYT was obtained from Sigma Co., Ltd.
Substantially the same method as used in the measurement of the HLE inhibitory activity was used except that a buffer solution (pH 8.0) was used. The final concentration of CYT and synthetic substrate (Funakoshi, L-1010) in a reaction mixture were 3.4 nM and 0.273 mM, respectively.

In experiment [4] the test system is neutrophiles from the human peripheral blood. In words: Human neutrophile chemotaxis suppressing activity (fMLP, chemotaxis chamber). The following applies: Concentration 12.5 µM, 10-⁷M fMLP, one hour at 37°C. It is filed as cell-based. As for the experimental part:
The neutrophile fraction (60% percoal fraction having neutrophile purity of 90% or more) was taken from the human peripheral blood by means of percoal density gradient centrifugation at 2300 rpm for 20 minutes.
An intercell having a pore diameter of 5 µm, containing 8 x 10⁵ of neutrophiles and the compound of the present invention adjusted in various concentrations was placed in each well of a chemotaxis chamber (KURABO), in which has been added 1300 µl of a medium containing 10-⁷M of formylmethionyl-leucyl-phenylalanine (fMLP), which is a neutrophile chemotaxis factor. After incubating for one hour at 37°C in an incubator containing 5% carbon dioxide, the number of cells migrating from the upper side of the intercell membrane into the lower side of the membrane in the chamber was counted by the following method. That is, the lower side surface of the intercell membrane was washed with PBS for 4 times and fixed with methanol and dyed with hematoxylin-eosin solution. The membrane was removed from the intercell and placed on a slide, dried in air, followed by sealing with Canada balsam. The cell number was microscopically counted in 5 visual fields. Taking average number of the five fields, the average was employed as the number of migrating cells. The value subtracting the migrating cell number in a control experiment containing no fMLP from the cell number in an experiment containing no the compound of the present invention was regarded as 100, the chemotaxis suppressing activity was determined as the following formula: Neutrophilic chemotaxis suppressing activity (%) [formula] = 100 - A/B x 100 [formula] = 100 - (C - D)/(E-D) x 100 [formula] Where: • A: chemotaxis measured in the experiment containing the compound of the present invention; • B: chemotaxis measured in the experiment not containing the compound of the present invention • C: the number of migrating cells measured in the experiment containing both the compound of the present invention and fMLP. • D: the number of migrating cells in the experiment containing neither the compound of the present invention nor fMLP. • E: the number of migrating cells in the experiment containing only fMLP.

`Cc1cccc2nc([C@@H](NC(=O)OCC(c3ccccc3)c3ccccc3)C(C)C)oc(=O)c12` [Compound 1, 2-[1(S)-[(2,2-diphenylethoxy-carbonyl)amino]-2-methylpropyl]-5-methyl-4H-3,1-benzoxazin-4-one]: the pIC50 in experiment [1] is 6.55; in experiment [2], below 4.90; in experiment [3], 5.85. In experiment [4] (experiment without compound regarded as 100), the Chemotaxis turned out to be 4.7. The molecule also returned an activity at 12.5 µM in experiment [4] (Homo sapiens, 1 h) of 95.3%.
